Data reported in US20190365698A1, “Use of Antineoplastic Agents to Stimulate the Immune System for Treatment of Cancer” (CRITITECH, INC., priority 2018, published 2019).
In brackets after ≈: the same amount, converted by molar mass. Several values for one entry are separate records, joined by “and”; a condition that tells them apart may be missing. Equal entries are not always repeated. Marks after values point to notes of the source that are not given here.

Tests used:
786-O cell line [1] = assay: Renal cell adenocarcinoma xenograft: histology and immunohistochemistry (viable carcinoma size, necrosis, lymphohistiocytic infiltrate); type: in vivo, Sprague-Dawley Rag2; Il2rg null (SRG) rat
From the text: Microscopic Examination: Tissues fixed with 10% NBF were embedded in paraffin. Each tumor was cut into 2-3 pieces and embedded and sectioned together.

786-O cell line [2] = assay: Rat xenograft model of human renal cell adenocarcinoma: tumor volume; type: in vivo, Sprague-Dawley Rag2; Il2rg null (SRG) rat; details: IV docetaxel, 3 weekly cycles
[3] = test system: UM-UC-3 bladder cancer cell line; assay: Human bladder cancer (UM-UC-3) mouse xenograft study: tumor volume; type: in vivo, Hsd:Athymic Nude-Foxnlnu nude mice
Description: Tumor volume was determined with calipers. […] Animals were weighed 2×/week.
At day 18 after tumor implant, when average tumor size was between 50-325 mm^3, animals were sorted into five groups with equal average tumor sizes and were treated as shown in Table 25 below.
The second treatments (2nd cycle) occurred 7 days following first treatment (1st cycle) and third treatments (3rd cycle) occurred 14 days following the first treatment. The docetaxel solution IV was administered via the tail vein.
Vehicle (Control): Diluted 1 ml of the 1% Polysorbate 80/8% Ethanol in normal saline (0.9% Sodium Chloride for Injection) reconstitution solution with 1.5 mL of normal saline (0.9% Sodium Chloride for Injection, USP). […] Vigorously hand shook the vial with inversions for 1 minute. […] Allowed the suspension to sit undisturbed for at least 5 minutes to reduce entrapped air and foam. […] Vortexed to mix.

[4] = test system: UM-UC-3 bladder cancer cell line; assay: Bladder cancer xenograft study: histology and immunohistochemistry (viable carcinoma size, necrosis, macrophage infiltrate, TLS, necropsy volume)
Description: Tumors were implanted with 1×10^7 cells (1004, volume) into right flank (PBS 1:1 with matrigel: BD356234). Tumor volume was determined with calipers. Formula: V=(r length*r width*r height)*π*4/3. Animals were weighed 2×/week. Tumor volumes were determined every 3 to 4 days following tumor implant (total of ˜20 measurements) and on day of euthanasia. Photo images of tumors were obtained at 2, 3 and 4 weeks post implantation and on day of euthanasia. Animals were euthanized once the tumor reached a size of 3,000 mm^3 or up to the point of significant tumor ulceration. At the time of euthanasia, tumors were isolated and halved. […] The second half of the tumor was fixed in formalin. Two H&E stained slides/tumor were prepared (up to 4 tumor/group were processed).
Tumor tissue was fixed before H&E and IHC staining. Bladder tissue sections were deparaffinized and processed by standard H&E and IHC staining. At least four tumors per treatment group were processed.

[5] = Solubility of the active in the receptor fluid; type: physicochemical; details: not told, aqueous with cosolvent or surfactant or cyclodextrin; 96 wt % PBS at pH 7.4 and 4 wt % hydroxyl propyl beta cyclodextrin
Description: The receptor fluid was degassed by filtering the receptor fluid through a ZapCap CR 0.2 μm membrane while pulling vacuum. The filtered receptor fluid was stirred for an additional 20 minutes while maintaining vacuum to ensure complete degassing.

[6] = IV Docetaxel 3 cycles, 2 animals

Compound: CC(=O)O[C@@]12CO[C@@H]1C[C@H](O)[C@@]1(C)C(=O)[C@H](O)C3=C(C)[C@@H](OC(=O)[C@H](O)[C@@H](NC(=O)OC(C)(C)C)c4ccccc4)C[C@@](O)([C@@H](OC(=O)c4ccccc4)[C@H]21)C3(C)C [Doce]
- Percentage of tissue showing necrosis: number of animals with 5-50% (786-O cell line [1]; IV Doce, 2 animals): 2
- Lymphohistiocytic infiltrate density: number of animals graded Mild (786-O cell line [1]; IV Doce, 2 animals, H/E and CD11b staining): 2

Compound: CC(=O)O[C@@]12CO[C@@H]1C[C@H](O)[C@@]1(C)C(=O)[C@H](O)C3=C(C)[C@@H](OC(=O)[C@H](O)[C@@H](NC(=O)OC(C)(C)C)c4ccccc4)C[C@@](O)([C@@H](OC(=O)c4ccccc4)[C@H]21)C3(C)C [Docetaxel, docetaxel]
- tumor growth vs vehicle control (786-O cell line [2]): partial tumor growth inhibition compared to vehicle control
- Tumor volume over time ([3]; Docetaxel IV 30 mg/kg, 3 weekly cycles, 61 days): decreased initially for dosages of nDoce IT 1 cycle and Docetaxel IV 3 cycles, but subsequently increased
- Effectiveness in relation to initial tumor size ([3]; Docetaxel IV 3 cycles): somewhat effective at treating small tumors, but not very effective in treating large tumors
- Histology overview (H&E) vs vehicle control (786-O cell line [1]; Docetaxel (IV) 3 cycles, FIG. 93): no difference
- morphologic and immunohistochemical appearance (786-O cell line [1]; IV docetaxel, two cases): identical morphologic and immunohistochemical appearance to that seen in the control and IT vehicle groups
- Size of residual viable carcinoma on slide: number of animals with >10 mm (786-O cell line [1]; IV docetaxel, 2 animals): 2
- residual viable carcinoma nodules, size (786-O cell line [1]; both IV docetaxel animals): greater than 10 mm
- Histological overview, general observations (H&E) ([4]; Docetaxel Solution IV 3 cycles): many viable appearing tumor masses with some macrophage and occasional lymphocytic response along with some tumor necrosis
- Immunohistochemistry overview, F4/80 stain ([4]; FIG. 87, IV Docetaxel 3 cycles): Very little tumor cell destruction and few scattered mononuclear immune cells among vast number of viable tumor cells
- # containing at least one TLS [4, 6]: 0
- Maximum size of viable invasive carcinoma on the slide >10 mm (number of animals) [4, 6]: 2*
- Percentage of tumor showing necrosis: number of animals with 11-50% [4, 6]: 1
- Percentage of tumor showing necrosis: number of animals with 50-90% [4, 6]: 1
- Macrophage infiltrate density Mild (number of animals) ([4]; IV Docetaxel 3 cycles, H&E and CD68): 2
- Maximum tumor size on slide ([4]; IV Docetaxel 3 cycles, individual animals B1, B3): 15 mm and 11 mm
- TLSs ([4]; IV docetaxel 3 cycles): There were no TLSs present
- tumor mass maximum dimension on the slide, individual cases ([4]; IV docetaxel 3 cycles): 11 mm and 15 mm
- geographic tumor cell necrosis, share of tumor area, individual cases ([4]; IV docetaxel 3 cycles, cases B1 and B3): 11-50% and 50-90%

Compound: CC(=O)O[C@H]1C(=O)[C@@]2(C)[C@H]([C@H](OC(=O)c3ccccc3)[C@]3(O)C[C@H](OC(=O)[C@H](O)[C@@H](NC(=O)c4ccccc4)c4ccccc4)C(C)=C1C3(C)C)[C@]1(OC(C)=O)CO[C@@H]1C[C@@H]2O [paclitaxel]
- solubility [5]: ~0.4 µg/mL (≈ 0.468 µM)
